# Data published in patent US11766468B2, “Method of treating prostate cancer with GnRH antagonist” (priority 2012, dated 2023).
# Square brackets hold non-standard residues; d marks the D form. Peptide text beside a SMILES is read from it. * marks the point of attachment. dPhe(4-NHCONH2) = NC(=O)Nc1ccc(C[C@@H](N)C(=O)O)cc1; Dihydroorotyl(S) = O=C1C[C@@H](C(=O)*)NC(=O)N1; dPhe(4-Cl) = N[C@H](Cc1ccc(Cl)cc1)C(=O)O; Phe(4-NH2) = Nc1ccc(C[C@H](N)C(=O)O)cc1; d2Nal = N[C@H](Cc1ccc2ccccc2c1)C(=O)O; Lys(iPr) = CC(C)NCCCC[C@H](N)C(=O)O; d3Pal = N[C@H](Cc1cccnc1)C(=O)O
# Experiment: CS21 safety: treatment-emergent adverse events (MedDRA SOC/PT), crude incidence, also by subgroup
# Format: in vivo
# Description: The safety variables for this study were assessed on the following: the frequency and severity of adverse events (AEs); the presence of clinically significant changes in laboratory parameters (clinical chemistry, hematology and urinalysis); changes in electrocardiograms (ECGs) and vital signs; changes detected by physical examination; and body weight.
# An AE was therefore any unfavorable or unintended sign (including an abnormal laboratory finding), symptom or disease temporally associated with the use of the product, whether or not related to the IMP.
# An adverse drug reaction (ADR) was defined as an AE evaluated by the investigator as being probably or possibly related to treatment with the IMP.
# AEs were graded according to the National Cancer Institute (NCI) Common Terminology Criteria for Adverse Events (CTCAE). In accordance with the CTCAE criteria, AEs were rated on a five-point scale corresponding to mild, moderate, severe, life-threatening or disabling and death. For those AEs not described in the CTCAE, a separate five-point rating scale was used for rating of the intensity of AEs as follows below:
# Safety parameters were evaluated for all patients included in the ITT analysis set, comprising all 610 randomized patients who received at least one dose of study medication. All safety tables include four columns: the three treatment groups described separately, and the pooled degarelix group.
# Adverse events were regarded as ‘treatment-emergent’ if they occurred in the time interval from initial dosing to end-of-study. Adverse events were considered ‘pre-treatment’ if they occurred between screening and the initial injections of IMP. As described above, all AEs were classified according to MedDRA (version 10.0) system organ class (SOC), sorted alphabetically, and by preferred term (PT), in decreasing frequency of occurrence. Treatment-emergent AEs were expressed in terms of intensity (using NCI CTCAE) and relationship to study drug.
# Using the results from the summary of clinical efficacy (SCE) and summary of clinical safety (SCS) findings, different patient subgroups were analyzed. Subgroup distinguishers included race (white, black, and other), age (<65 years, […], and >75 years), weight (<70 kg, ≥70−<90 kg, and ≥90 kg), body mass index (BMI) (≤20, >20 to 30, and >30 kg/m^2)), region (North-America, Western Europe, Central and Eastern Europe and Other), and stage of prostate cancer (e.g., localized, locally advanced, and metastatic).
# [1] = degarelix 240/80 mg, listed as degarelix
smiles,measurement,setting,value
"CC(=O)N[C@H](Cc1ccc2ccccc2c1)C(=O)N[C@H](Cc1ccc(Cl)cc1)C(=O)N[C@H](Cc1cccnc1)C(=O)N[C@@H](CO)C(=O)N[C@@H](Cc1ccc(NC(=O)[C@@H]2CC(=O)NC(=O)N2)cc1)C(=O)N[C@H](Cc1ccc(NC(N)=O)cc1)C(=O)N[C@@H](CC(C)C)C(=O)N[C@@H](CCCCNC(C)C)C(=O)N1CCC[C@H]1C(=O)N[C@H](C)C(N)=O [Degarelix, D-Alaninamide, N-acetyl-3-(2-naphthalenyl)-D-alanyl-4-chloro-D-phenylalanyl-3-(3-pyridinyl)-D-alanyl-L-seryl-4-[[[(4S)-hexahydro-2,6-dioxo-4-pyrimidinyl]carbonyl]amino]-L phenylalanyl-4-[(aminocarbonyl)amino]-D-phenylalanyl-L leucyl-N6-(1-methylethyl)-L-lysyl-L-prolyl] (Ac-[d2Nal][dPhe(4-Cl)][d3Pal]S[Phe(4-NH2)](Dihydroorotyl(S))[dPhe(4-NHCONH2)]L[Lys(iPr)]P[dA]-NH2)","ADRs, % of patients",degarelix 240/80 mg,57%
same,"ADRs, E events",degarelix 240/80 mg,459
same,"ADRs, N patients",degarelix 240/80 mg,118
same,"AEs leading to discontinuation, % of patients",degarelix 240/80 mg,7%
same,"AEs leading to discontinuation, E events",degarelix 240/80 mg,15
same,"AEs leading to discontinuation, N patients",degarelix 240/80 mg,15
same,"Alanine aminotransferase increased, % of patients",degarelix 240/80 mg,(10%)
same,"All AEs, E = number of adverse events",degarelix 240/80 mg,937
same,"All AEs, N = number of patients",degarelix 240/80 mg,163
same,"Arthralgia, % of patients",degarelix 240/80 mg,( 5%)
same,"Aspartate aminotransferase increased, % of patients",degarelix 240/80 mg,( 5%)
same,"Back pain, % of patients",degarelix 240/80 mg,( 6%)
same,"Blood & lymphatic system disorders, % of patients",degarelix 240/80 mg,( 2%)
same,"Cardiac disorders, % of patients",degarelix 240/80 mg,( 8%)
same,"Chills, % of patients",degarelix 240/80 mg,( 5%)
same,"Constipation, % of patients",degarelix 240/80 mg,( 5%)
same,"Deaths (Grade 5), % of patients",degarelix 240/80 mg,2%
same,"Deaths (Grade 5), E events",degarelix 240/80 mg,5
same,"Deaths (Grade 5), N patients",degarelix 240/80 mg,5
same,"Ear & labyrinth disorders, % of patients",degarelix 240/80 mg,( 3%)
same,"Endocrine disorders, % of patients",degarelix 240/80 mg,(<1%)
same,"Eye disorders, % of patients",degarelix 240/80 mg,( 3%)
same,"Fatigue, % of patients",degarelix 240/80 mg,( 3%)
same,"Gastrointestinal disorders, % of patients",degarelix 240/80 mg,(18%)
same,"General disorders & administration site conditions, % of patients",degarelix 240/80 mg,(44%)
same,"Hepatobiliary disorders, % of patients",degarelix 240/80 mg,(<1%)
same,"Hot flush, % of patients",degarelix 240/80 mg,(26%)
same,"Hypercholesterolaemia, % of patients",degarelix 240/80 mg,( 3%)
same,"Hypertension, % of patients",degarelix 240/80 mg,( 6%)
same,"Immune system disorders, % of patients",degarelix 240/80 mg,(<1%)
same,"Infections & infestations, % of patients",degarelix 240/80 mg,(22%)
same,"Injection site erythema, % of patients",degarelix 240/80 mg,(17%)
same,"Injection site induration, % of patients",degarelix 240/80 mg,( 4%)
same,"Injection site nodule, % of patients",degarelix 240/80 mg,( 3%)
same,"Injection site pain, % of patients",degarelix 240/80 mg,(28%)
same,"Injection site swelling, % of patients",degarelix 240/80 mg,( 6%)
same,"Injury, poisoning & procedural complications, % of patients",degarelix 240/80 mg,( 5%)
same,"Investigations, % of patients",degarelix 240/80 mg,(26%)
same,"Metabolism & nutrition disorders, % of patients",degarelix 240/80 mg,( 7%)
same,"Musculoskeletal & connective tissue disorders, % of patients",degarelix 240/80 mg,(15%)
same,"Nausea, % of patients",degarelix 240/80 mg,( 4%)
same,"Neoplasms benign, malignant & unspecified, % of patients",degarelix 240/80 mg,( 5%)
same,"Nervous system disorders, % of patients",degarelix 240/80 mg,(12%)
same,"Psychiatric disorders, % of patients",degarelix 240/80 mg,( 8%)
same,"Renal & urinary disorders, % of patients",degarelix 240/80 mg,(14%)
same,"Reproductive system & breast disorders, % of patients",degarelix 240/80 mg,( 4%)
same,"Respiratory, thoracic & mediastinal disorders, % of patients",degarelix 240/80 mg,(12%)
same,"Serious AEs, % of patients",degarelix 240/80 mg,10%
same,"Serious AEs, E events",degarelix 240/80 mg,26
same,"Serious AEs, N patients",degarelix 240/80 mg,21
same,"Skin & subcutaneous tissue disorders, % of patients",degarelix 240/80 mg,( 9%)
same,"Urinary tract infection, % of patients",degarelix 240/80 mg,( 5%)
same,"Vascular disorders, % of patients",degarelix 240/80 mg,(34%)
same,"Weight increased, % of patients",degarelix 240/80 mg,( 9%)
same,"Injection site adverse events, % of subjects","degarelix 240/80 mg s.c., leuprolide 7.5 mg i.m.",35%
same,"ADRs excluding injection site reactions, % of patients","degarelix 240/80 mg, leuprolide 7.5 mg",43%
same,"Arthralgia, % of patients",[1],5%
same,"Back pain, % of patients",[1],6%
same,"Chills, % of patients",[1],5%
same,"Constipation, % of patients",[1],5%
same,"Fatigue, % of patients",[1],3%
same,"Hot flush, % of patients",[1],26%
same,"Hypertension, % of patients",[1],6%
same,"Injection site erythema, % of patients",[1],17%
same,"Injection site induration, % of patients",[1],4%
same,"Injection site nodule, % of patients",[1],3%
same,"Injection site pain, % of patients",[1],28%
same,"Injection site swelling, % of patients",[1],6%
same,"Musculoskeletal & connective tissue disorders, % of patients",[1],15%
same,"Treatment-emergent adverse events (all AEs), % of patients",[1],79%
same,"Urinary tract infection, % of patients",[1],5%
same,"Weight increased, % of patients",[1],9%
same,"ADRs excluding injection site reactions, % of patients",degarelix 240/160 mg,44%
same,"ADRs, % of patients",degarelix 240/160 mg,59%
same,"ADRs, E events",degarelix 240/160 mg,463
same,"ADRs, N patients",degarelix 240/160 mg,120
